# Like-named read-outs stand apart in the source and are kept apart here.
# Tests used:
# HIV-1Ba-L [1] = assay: Inhibition of virus replication in MAGI-CCR5 cells (β-galactosidase reporter); type: cell-based
# Description: (§1) The anti-viral activity of dihydropyrimidines was shown by inhibition of virus replication in MAGI-CCR5 cells. MAGI-CCR5 cells are derived from HeLa-CD4-LTR-β-galactosidase cells. The cells have been engineered to express high levels of CD4 and CCR5 and contain one copy of the HIV-1 LTR promoter driving expression of the β-galactosidase gene upon HIV-1 Tat transactivation. On the day preceding the assay, the cells were plated at 1.0×10^4 cells per well and maintained at 37° C. and 5% CO2 in a humidified incubator. Total cell count and viability was visually assessed using a hemacytometer and trypan blue exclusion.
# Compounds were evaluated at six concentrations (triplicate wells/concentration). On the day of assay setup, compound dilutions were prepared at two-times (2×) the final concentrations. Media was decanted and wells were replenished with 50 μl of 2× compounds, followed by the addition of 50 μl of diluted virus. Identical uninfected assays were prepared for parallel cytotoxicity testing.
# Evaluation of Dihydropyrimidines vs. HIV-1Ba-L in MAGI-CCR5 Cells
# [2] = Cytotoxicity by MTS staining in uninfected MAGI-CCR5 cells; type: cell-based; conditions: human, read-out: TC50
# Description: as §1, with “exclusion. Compounds were evaluated at six concentrations (triplicate wells/concentration). On the day of assay setup, compound dilutions were prepared at two-times (2×) the final concentrations. Media was decanted and wells were replenished with 50 μl of 2× compounds, followed by the addition of 50 μl of diluted virus. Identical uninfected assays were prepared for parallel cytotoxicity testing.” for “exclusion.”
# HIV-1Ba-L [3] = assay: HIV-1Ba-L replication in PBMCs (supernatant RT end-point)
# Description: Evaluation of Dihydropyrimidines vs. HIV-1Ba-L in Peripheral Blood Mononuclear Cells (PBMCs)
# Cultures of pooled phytohemagglutinin stimulated peripheral blood mononuclear cells (PBMC) were seeded into a 96-well plate at plating density of 5×10^4 cells/well. Compounds were serially diluted into media in ½-log increments using a high test of […] and […] of each concentration (nine total concentrations). Cells were infected with HIV strains HIV-1Ba-L and NL4-3 at an MOI=0.1. The PBMCs were cultured for seven days in an humidified incubator maintained at 37° C., 5% CO2 atmosphere. At the assay end-point, the supernatant was collected and analyzed for reverse transcriptase activity. For the RT assay, tritiated thymidine triphosphate (3H-TTP, 80 Ci/mmol) was diluted 1:1 dH2O:Ethanol at 1 mCi/ml. Poly rA:oligo dT template:primer was prepared as a stock solution by combining 150 μl poly rA (20 mg/ml) with 0.5 mL oligo dT (20 units/ml) and 5.35 ml sterile dH2O followed by aliquoting (1.0 ml) and storage at −20° C. The RT reaction buffer contained of 125 ml 1.0 M EGTA, 125 ml dH2O, 125 ml 20% Triton X100, 50 ml 1.0 M Tris (pH 7.4), 50 ml 1.0 M DTT, and 40 ml 1.0 M MgCl2. The final reaction mixture was prepared by combining 1 part 3H-TTP, 4 parts dH2O, 2.5 parts poly rA:oligo dT stock and 2.5 parts reaction buffer. To each well, ten microliters of the reaction mixture and 15 μl of virus containing supernatant were added. The plates were incubated at 37° C. for 60 minutes. Following incubation, the reaction volume was spotted onto DE81 filter-mats, washed 5 times for 5 minutes each in a 5% sodium phosphate buffer or 2×SSC. […] were washed 2 times for 1 minute each in distilled water, 2 times for 1 minute each in 70% ethanol, and then dried. Incorporated radioactivity (counts per minute, CPM) was quantified using standard liquid scintillation techniques.
# [4] = Cytotoxicity by MTS staining in PBMCs; type: cell-based; conditions: human, peripheral blood mononuclear cells (PBMC), read-out: TC50
# Description: Cytotoxicity was assessed by MTS staining. At assay end-point, PBMC were stained with the addition of […] of the soluble tetrazolium-based dye MTS to determine cell viability and quantify compound toxicity. The plates were incubated 4 to 6 hrs at 37° C. Following incubation, the activity was assessed by reading absorbance values at 490/650 nm.
# HIV-1 K103N, Y181C (A17) = HIV-1 K103N, Y181C (A17) replication in PBMCs; type: cell-based
# From the text: In another embodiment of the present disclosure compounds are provided which inhibit the replication of HIV strains resistant to NNRTIs. Compounds in this disclosure inhibit, A17, an HIV-1 virus with mutations in the RT non-nucleoside binding pocket, K103N and Y181C, in a dose-dependent susceptibility testing manner.
# The asparagine variation at residue 103 and the cysteine variation at residue 181 are known to inhibit the activity of the NNRTI's.
# Evaluation Dihydropyrimidines vs. HIV-1Ba-L and HIV-1 K103N, Y181C in PBMCs
# [5] = Human immunodeficiency virus 1, HIV-1Ba-L in MAGI-CCR5 cells, 48 hours, β-galactosidase reporter expression, read-out: IC50
# [6] = Human immunodeficiency virus 1, PBMC, 168 h
Structure (SMILES),TI (TC50/IC50) (HIV-1Ba-L [1]; HIV-1Ba-L in MAGI-CCR5 cells),IC50 (HIV-1Ba-L [1]; [5]) [µM],CC50 at 48 h [2] [µM],TI (TC50/IC50) (HIV-1Ba-L [3]; HIV-1Ba-L in PBMCs),"IC50 (HIV-1Ba-L [3]; Human immunodeficiency virus 1, BAL, PBMC) [µM]",IC50 (HIV-1Ba-L [3]; [6]) [µM],TI (TC50/IC50) (HIV-1Ba-L [3]; Virus Ba-L in PBMCs (Ba-L vs A17 comparison)),CC50 at 7 days ([4]; A17 line of the table) [µM],CC50 at 7 days ([4]; Ba-L line of the table) [µM],CC50 at 7 days ([4]; MTS staining) [µM],"IC50 (HIV-1 K103N, Y181C (A17); Human immunodeficiency virus 1, PBMC) [µM]","TI (TC50/IC50) (HIV-1 K103N, Y181C (A17); Virus A17 (K103N, Y181C) in PBMCs)","IC50 (HIV-1Ba-L [1]; Human immunodeficiency virus 1, MAGI-CCR5, 48 h) [µM]"
COc1ccc(-c2csc(C3=C(C)NC(=O)NC3c3ccc(F)c([N+](=O)[O-])c3)n2)cc1 (stereo not drawn) [Example 42],D (D < 10.0),> 100,≥ 100,D (D < 10.0),5 to 100,5 to 100,D (D < 10.0),≥ 100,≥ 100,≥ 100,5 to 100,D (D < 10.0),
COc1ccc(C2NC(=O)NC(C)=C2c2nc(-c3ccc(C#N)cc3)cs2)cn1 (stereo not drawn) [Example 25],A (A = TI (TC50/IC50) ≧ 100.0),< 1,≥ 100,A (A = TI (TC50/IC50) ≧100.0),,< 1,,,,≥ 100,,,
CC1=C(c2nc(-c3ccc(C#N)cc3)cs2)C(c2ccc(Oc3ccccc3)cc2)NC(=O)N1 (stereo not drawn) [Example 59],A (A = TI (TC50/IC50) ≧ 100.0),< 1,≥ 100,A (A = TI (TC50/IC50) ≧100.0),,< 1,,,,≥ 100,,,
CC1=C(c2nc(-c3ccc(C#N)cc3)cs2)C(c2cc(O)cc(O)c2)NC(=O)N1 (stereo not drawn) [Example 80],D (D < 10.0),> 100,≥ 100,B (B < 100.0-50.0),,1 to 5,,,,≥ 100,,,
CC1=C(c2nc(-c3ccc(C#N)cc3)cs2)C(c2ccc(N(C)C)nc2)NC(=O)N1 (stereo not drawn) [Example 91],A (A = TI (TC50/IC50) ≧ 100.0),< 1,≥ 100,B (B < 100.0-50.0),,1 to 5,,,,≥ 100,,,
COc1ccc(-c2csc(C3=C(C)NC(=O)NC3c3cc(Br)cs3)n2)cc1 (stereo not drawn) [Example 40],D (D < 10.0),> 100,≥ 100,D (D < 10.0),,5 to 100,,,,≥ 100,,,
CC1=C(c2nc(-c3ccc(C#N)cc3)cs2)C(c2ccc(Oc3ccccc3)nc2)NC(=O)N1 (stereo not drawn) [Example 90],A (A = TI (TC50/IC50) ≧ 100.0),< 1,≥ 100,C (C < 50.0-10.0),,1 to 5,,,,50 to 100,,,
CC1=C(c2nc(-c3ccc(C#N)cc3)cs2)C(c2cccc(C(F)(F)F)c2)NC(=O)N1 (stereo not drawn) [Example 71],B (B < 100.0-50.0),1 to 5,≥ 100,C (C < 50.0-10.0),,5 to 100,,,,≥ 100,,,
COc1cncc(C2NC(=O)NC(C)=C2c2nc(-c3ccc(C#N)cc3)cs2)c1 (stereo not drawn) [Example 26],D (D < 10.0),5 to 100,≥ 100,C (C < 50.0-10.0),,1 to 5,,,,≥ 100,,,
CC1=C(c2nc(-c3ccc(Br)cc3)cs2)C(c2cccc(O)c2)NC(=O)N1 (stereo not drawn) [Example 35],C (C < 50.0 to 10.0),1 to 5,50 to 100,C (C < 50.0-10.0),,1 to 5,,,,50 to 100,,,
"Cc1nnc(C(=O)NC(C)(C)c2nc(C(=O)NCc3ccc(F)cc3)c(O)c(=O)n2C)o1 [Raltegravir, reference compound]",>3.85,,> 100,>371.0,,0.003,,,,> 1,,,0.026
CC1=C(c2nc(-c3ccc(C#N)cc3)cs2)C(c2ccncc2F)NC(=O)N1 (stereo not drawn) [Example 30],D (D < 10.0),> 100,≥ 100,D (D < 10.0),,> 100,,,,≥ 100,,,
COc1ccc(C2NC(=O)NC(C)=C2c2nc(-c3ccc(C#N)cc3)cs2)cc1 (stereo not drawn) [Example 64],B (B < 100.0-50.0),< 1,< 50,A (A = TI (TC50/IC50) ≧100.0),,< 1,,,,≥ 100,,,
CC1=C(c2nc(-c3ccccc3)cs2)C(c2cccc(O)c2)NC(=O)N1 (stereo not drawn) [Example 33],D (D < 10.0),5 to 100,≥ 100,D (D < 10.0),,5 to 100,,,,50 to 100,,,
CC1=C(c2nc(-c3ccc(C#N)cc3)cs2)C(c2ccc3cccc(O)c3n2)NC(=O)N1 (stereo not drawn) [Example 23],A (A = TI (TC50/IC50) ≧ 100.0),< 1,50 to 100,A (A = TI (TC50/IC50) ≧100.0),,< 1,,,,≥ 100,,,
CC1=C(c2nc(-c3cccc(C#N)c3)cs2)C(c2cccc(O)c2)NC(=O)N1C (stereo not drawn) [Example 68],D (D < 10.0),5 to 100,≥ 100,D (D < 10.0),,5 to 100,,,,50 to 100,,,
CC1=C(c2nc(-c3ccc(C#N)cc3)cs2)C(c2ccnc3ccccc23)NC(=O)N1 (stereo not drawn) [Example 15],B (B < 100.0-50.0),1 to 5,≥ 100,B (B < 100.0-50.0),,1 to 5,,,,≥ 100,,,
COc1ccc(-c2csc(C3=C(C)NC(=O)NC3c3ccc(-c4ccccc4)cc3)n2)cc1 (stereo not drawn) [Example 43],D (D < 10.0),> 100,≥ 100,D (D < 10.0),,5 to 100,,,,≥ 100,,,
CC1=C(c2nc(-c3ccc(C#N)cc3)cs2)C(c2ccc(=O)[nH]c2)NC(=O)N1 (stereo not drawn) [Example 18],D (D < 10.0),> 100,≥ 100,D (D < 10.0),,> 100,,,,≥ 100,,,
